From patent publication US11161855B2, “Tricyclic fused thiophene derivatives as JAK inhibitors” (Incyte Corporation, priority 2012, dated 2021)

System: human JAK1 (a.a. 837-1142)
Assay: In vitro JAK kinase assay (HTRF), JAK1
Format: biochemical
Conditions: ratio of IC50s, 1 mM ATP
Protocol: Compounds herein were tested for inhibitory activity of JAK targets according to the following in vitro assay described in Park et al., Analytical Biochemistry 1999, 269, 94-104. The catalytic domains of human JAK1 (a.a. 837-1142), JAK2 (a.a. 828-1132) and JAK3 (a.a. 781-1124) were expressed using baculovirus in insect cells and purified. The catalytic activity of JAK1, JAK2 or JAK3 was assayed by measuring the phosphorylation of a biotinylated peptide. The phosphorylated peptide was detected by homogenous time resolved fluorescence (HTRF). IC50s of compounds were measured for each kinase in the 40 μL reactions that contain the enzyme, ATP and 500 nM peptide in 50 mM Tris (pH 7.8) buffer with 100 mM NaCl, 5 mM DTT, and 0.1 mg/mL (0.01%) BSA. For the 1 mM IC50 measurements, ATP concentration in the reactions was 1 mM. Reactions were carried out at room temperature for 1 hour and then stopped with 20 μL 45 mM EDTA, 300 nM SA-APC, 6 nM Eu-Py20 in assay buffer (Perkin Elmer, Boston, Mass.). Binding to the Europium labeled antibody took place for 40 minutes and HTRF signal was measured on a PHERA star plate reader (BMG, Cary, N.C.). The Example compounds were each tested in the Example A assay (see Table 1 for data for the compounds of the examples as tested by the assay of Example A at 1 mM ATP).

JAK2/JAK1 | SMILES
>10 | C[C@@H](O)c1nc2cnc3ccsc3c2n1[C@H]1CC[C@H](CNC(=O)N(C)C)CC1 [Example 81, N′-[(trans-4-{2-[(1R)-1-Hydroxyethyl]-1H-imidazo[4,5-d]thieno[3,2-b]pyridin-1-yl}cyclohexyl)methyl]-N,N-dimethylurea]
>10 | C[C@@H](O)c1nc2cnc3ccsc3c2n1[C@H]1CCN(CCCC#N)C1 [Example 65, 4-((3S)-3-{2-[(1R)-1-Hydroxyethyl]-1H-imidazo[4,5-d]thieno[3,2-b]pyridin-1-yl}pyrrolidin-1-yl)butanenitrile]
>9 | C[C@@H](O)c1nc2cnc3ccsc3c2n1C1CCN(CC(F)(F)F)CC1 [Example 15, (1R)-1-{1-[1-(2,2,2-Trifluoroethyl)piperidin-4-yl]-1H-imidazo[4,5-d]thieno[3,2-b]pyridin-2-yl}ethanol]
>10 | CC(C)c1nc2cnc3ccsc3c2n1[C@H]1CC[C@H](CC#N)OC1 [Example 42, [(2R,5S)-5-(2-Isopropyl-1H-imidazo[4,5-d]thieno[3,2-b]pyridin-1-yl)tetrahydro-2H-pyran-2-yl]acetonitrile]
>10 | C[C@@H](O)c1nc2cnc3ccsc3c2n1C1CCC(O)(CC#N)CC1 (single isomer, unassigned) [24 (first peak)]
>10 | C[C@@H](O)c1nc2cnc3ccsc3c2n1C1CCN(CCC#N)CC1 [Example 16, 3-(4-{2-[(1R)-1-Hydroxyethyl]-1H-imidazo[4,5-d]thieno[3,2-b]pyridin-1-yl}piperidin-1-yl)propanenitrile]
>10 | C[C@@H](O)c1nc2cnc3ccsc3c2n1C1CCC(O)(CC#N)CC1 (single isomer, unassigned) [24 (second peak)]
>10 | C[C@@H](O)c1nc2cnc3ccsc3c2n1[C@H]1CC[C@@H](C#N)CC1 [Example 7, cis-4-{2-[(1R)-1-Hydroxyethyl]-1H-imidazo[4,5-d]thieno[3,2-b]pyridin-1-yl}cyclohexanecarbonitrile]
>10 | C[C@@H](O)c1nc2cnc3ccsc3c2n1C1CCN(CCCC(F)(F)F)CC1 [Example 60, (1R)-1-{1-[1-(4,4,4-Trifluorobutyl)piperidin-4-yl]-1H-imidazo[4,5-d]thieno[3,2-b]pyridin-2-yl}ethanol]
>10 | C[C@@H](O)c1cc2cnc3ccsc3c2n1[C@H]1CC[C@H](CC#N)CC1 [Example 23, (trans-4-{7-[(1R)-1-Hydroxyethyl]-8H-pyrrolo[2,3-d]thieno[3,2-b]pyridin-8-yl}cyclohexyl)acetonitrile]
>10 | CCNC(=O)C[C@H]1CC[C@H](n2c([C@@H](C)O)nc3cnc4ccsc4c32)CC1 [Example 31, N-Ethyl-2-(trans-4-{2-[(1R)-1-hydroxyethyl]-1H-imidazo[4,5-d]thieno[3,2-b]pyridin-1-yl}cyclohexyl)acetamide]
>10 | C[C@@H](O)c1nc2cnc3ccsc3c2n1[C@H]1CC[C@H](CC#N)[C@H](N)C1 [Example 67, ((1R,2R,4S)-2-Amino-4-{2-[(1R)-1-hydroxyethyl]-1H-imidazo[4,5-d]thieno[3,2-b]pyridin-1-yl}cyclohexyl)acetonitrile]
>10 | C[C@@H](O)c1nc2cnc3ccsc3c2n1[C@H]1CCCN(C(=O)CCC#N)C1 [Example 58, 4-((3S)-3-{2-[(1R)-1-Hydroxyethyl]-1H-imidazo[4,5-d]thieno[3,2-b]pyridin-1-yl}piperidin-1-yl)-4-oxobutanenitrile]
>10 | C[C@@H](O)c1nc2cnc3ccsc3c2n1[C@H]1CC[C@H](CCC#N)CC1 [Example 8, 3-(trans-4-{2-[(1R)-1-Hydroxyethyl]-1H-imidazo[4,5-d]thieno[3,2-b]pyridin-1-yl}cyclohexyl)propanenitrile]
>10 | CC(F)c1nc2cnc3ccsc3c2n1[C@H]1CC[C@H](CC#N)OC1 (stereo partly drawn) [Example 71, {(2R,5S)-5-[2-(1-Fluoroethyl)-1H-imidazo[4,5-d]thieno[3,2-b]pyridin-1-yl]tetrahydro-2H-pyran-2-yl}acetonitrile]
>6 | N#CC[C@H]1CC[C@H](n2/c(=N/C#N)[nH]c3cnc4ccsc4c32)CC1.O=C(O)C(F)(F)F [Example 25, {(2E)-1-[trans-4-(Cyanomethyl)cyclohexyl]-1,3-dihydro-2H-imidazo[4,5-d]thieno[3,2-b]pyridin-2-ylidene}cyanamide Trifluoroacetate]
>10 | CC(C)OC(=O)NC[C@H]1CC[C@H](n2c([C@@H](C)O)nc3cnc4ccsc4c32)CO1 [Example 76, Isopropyl [((2R,5S)-5-{2-[(1R)-1-hydroxyethyl]-1H-imidazo[4,5-d]thieno[3,2-b]pyridin-1-yl}tetrahydro-2H-pyran-2-yl)methyl]carbamate]
>10 | CC(CC(=O)N1CCC[C@H](n2c([C@@H](C)O)nc3cnc4ccsc4c32)C1)c1ccccc1 (stereo partly drawn) [Example 55, (1R)-1-{1-[(3S)-1-(3-Phenylbutanoyl)piperidin-3-yl]-1H-imidazo[4,5-d]thieno[3,2-b]pyridin-2-yl}ethanol]
>10 | C[C@@H](O)c1nc2cnc3ccsc3c2n1C1CCC(NCCC#N)CC1 (single isomer, unassigned) [30 (second peak)]
>10 | C[C@@H](O)c1nc2cnc3ccsc3c2n1[C@H]1CC[C@H](CNC(=O)OC2CCOC2)CC1 (stereo partly drawn) [Example 85, Tetrahydrofuran-3-yl [(trans-4-{2-[(1R)-1-hydroxyethyl]-1H-imidazo[4,5-d]thieno[3,2-b]pyridin-1-yl}cyclohexyl)methyl]carbamate]
>10 | CC(N)c1nc2cnc3ccsc3c2n1[C@H]1CC[C@H](CC#N)OC1.O=C(O)C(F)(F)F (stereo partly drawn) [Example 68, {(2R,5S)-5-[2-(1-Aminoethyl)-1H-imidazo[4,5-d]thieno[3,2-b]pyridin-1-yl]tetrahydro-2H-pyran-2-yl}acetonitrile Trifluoro Acetate]
>10 | C[C@@H](O)c1nc2cnc3ccsc3c2n1C1CCCCC1 [Example 13, (1R)-1-(1-Cyclohexyl-1H-imidazo[4,5-d]thieno[3,2-b]pyridin-2-yl)ethanol]
>9 | CN1CC(c2nc3cnc4ccsc4c3n2[C@H]2CC[C@H](CC#N)CC2)C1 [Example 29, {trans-4-[2-(1-Methylazetidin-3-yl)-1H-imidazo[4,5-d]thieno[3,2-b]pyridin-1-yl]cyclohexyl}acetonitrile]
>3 | C[C@@H](O)c1nc2cnc3ccsc3c2n1[C@H]1CCCOC1 [Example 1, (1R)-1-{1-[(3S)-Tetrahydro-2H-pyran-3-yl]-1H-imidazo[4,5-d]thieno[3,2-b]pyridin-2-yl}ethanol]
>5 | CNS(=O)(=O)C[C@H]1CC[C@H](n2c([C@@H](C)O)nc3cnc4ccsc4c32)CC1 [Example 14, 1-(trans-4-{2-[(1R)-1-hydroxyethyl]-1H-imidazo[4,5-d]thieno[3,2-b]pyridin-1-yl}cyclohexyl)-N-methylmethanesulfonamide]
>10 | CCC(=O)NC[C@H]1CC[C@H](n2c(CC#N)nc3cnc4ccsc4c32)CC1 [Example 89, N-({trans-4-[2-(Cyanomethyl)-1H-imidazo[4,5-d]thieno[3,2-b]pyridin-1-yl]cyclohexyl}methyl)propanamide]
